US9409952B2, “Peptide-compound cyclization method” (Chugai Seiyaku Kabushiki Kaisha, priority 2011, dated 2016)
Like-named read-outs stand apart in the source and are kept apart here. Starred links: 1 amine or outer side, 2 acyl side, 3 side chain; linkers in the order of their positions; H or OH if unused. Positions of bridges follow the written chain, without caps; N, C: chain ends. Non-standard residues stand in square brackets, D forms with d. Residues, ends and D or L forms follow the SMILES beside them. *: point of attachment. NMeF = CN[C@@H](Cc1ccccc1)C(=O)O; NMeβAla = CN(CCC(=O)[*:2])[*:1]; NMeL = CN[C@@H](CC(C)C)C(=O)O; NMeV = CN[C@H](C(=O)O)C(C)C; NMeA = CN[C@@H](C)C(=O)O; Piperidide = C1CCN(*)CC1; dNMeA = CN[C@H](C)C(=O)O; β3hA = C[C@H](N)CC(=O)O; Sar = CNCC(=O)O

Tests used:
[1] = PAMPA (parallel artificial membrane permeability assay); type: in vitro ADME; settings: PAMPA
In short: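 Artificial membrane was 10% (w/v) egg lecithin plus 0.5% (w/v) cholesterol in dodecane on a PVDF filter. A 10 mM DMSO stock was added at 0.5% (v/v) to donor buffer (50 mM MOPSO, pH 6.5, 5.0% glycocholic acid). After 18 h at 37 °C, LC/MS or LC/UV gave donor and acceptor levels for Pe.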

[2] = Metabolic stability in human hepatic microsome; type: in vitro ADME; settings: microsomes
[3] = membrane permeation rate (Pe), 50 mM MOPSO buffer pH 6.5 with 5.0% glycocholic acid, 37° C., 18 hours, read-out: iPAMPA Pe
[4] = pH 7.4, human hepatic microsome, NADPH(+), read-out: CL NADPH(+)

| Structure (SMILES) | Papp at 18 hours, 50 µM ([1]; pH 6.5) [×10⁻⁶ cm/s] | microsomal CLint at 1 uM ([2]; human, pH 7.4, CL NADPH(+)) [µL/min/mg] | Papp at 18 hours, 50 µM [1, 3] [×10⁻⁶ cm/s] | microsomal CLint at 1 uM [2, 4] [µL/min/mg] |
| --- | --- | --- | --- | --- |
| CC[C@H](C)[C@@H]1NC(=O)[C@H](CC(C)C)N(C)C(=O)[C@H](Cc2ccccc2)N(C)C(=O)[C@@H](C(C)C)NC(=O)C[C@H](C)NC(=O)[C@H](CC(C)C)N(C)C(=O)[C@H](C)N(C)C(=O)[C@H]([C@@H](C)O)NC(=O)[C@H](Cc2ccccc2)N(C)C(=O)[C@H](C)N(C)C1=O [DP-780] (cyclo(I[NMeA][NMeF]T[NMeA][NMeL][β3hA][dV][NMeF][NMeL])) | 41 | 249 |  |  |
| CC[C@H](C)[C@H](NC(=O)[C@@H](NC(=O)[C@H](Cc1ccccc1)NC(=O)[C@H](CC(C)C)N(C)C(=O)[C@@H](NC(=O)[C@@H]1CC(=O)N[C@@H](C)C(=O)N(C)[C@@H](C)C(=O)N(C)[C@@H](Cc2ccccc2)C(=O)N[C@@H]([C@@H](C)O)C(=O)N(C)[C@@H](Cc2ccccc2)C(=O)N[C@@H](CC(C)C)C(=O)N2CCC[C@H]2C(=O)N1)[C@@H](C)CC)C(C)C)C(=O)N1CCCCC1 [DP-922] (A[NMeA][NMeF]T[NMeF]LPDI[NMeL]FVI-Piperidide; lactam N-8) | 0.12 | 70 |  |  |
| CC[C@H](C)[C@@H]1NC(=O)[C@H](CC(C)C)NC(=O)[C@H](Cc2ccccc2)NC(=O)[C@H](CC(C)C)NC(=O)CN(C)C(=O)[C@H](Cc2ccccc2)NC(=O)[C@H](C)NC(=O)C[C@@H](C(=O)N2CCCCC2)NC(=O)[C@H](Cc2ccccc2)NC(=O)[C@H]([C@@H](C)O)NC1=O [DP-330] (AF[Sar]LFLITFD-Piperidide; lactam N-10) |  |  | 9.9 | 61 |
| C=C1CCC(=O)N[C@@H](CC(C)C)C(=O)N(C)[C@@H]([C@@H](C)CC)C(=O)N(C)[C@@H](CC(C)C)C(=O)NCC(=O)N(C)[C@@H](C)C(=O)N[C@@H](Cc2ccccc2)C(=O)N[C@@H]([C@@H](C)O)C(=O)N(C)[C@@H](CC(C)C)C(=O)N[C@@H](Cc2ccccc2)C(=O)N(C)[C@@H](C(C)C)C(=O)N[C@H](C(=O)N2CCCCC2)Cc2cccc1c2 [DP-882] |  |  | 1.8 | 32 |
| CC[C@H](C)[C@@H]1NC(=O)[C@@H](C)N(C)C(=O)C[C@@H](C(=O)N2CCCCC2)NC(=O)[C@H](Cc2ccccc2)NC(=O)[C@H]([C@@H](C)O)NC(=O)[C@H](CC(C)C)NC(=O)[C@H](CC(C)C)NC(=O)CN(C)C(=O)[C@H](CC(C)C)NC(=O)[C@H](C)NC(=O)[C@H](CC(C)C)NC1=O [DP-327] ([dNMeA]ILAL[Sar]LLTFD-Piperidide; lactam N-11) |  |  | 3.5 | 70 |
| CC(C)C[C@@H]1NC(=O)[C@H]([C@@H](C)O)NC(=O)[C@H](CC(C)C)N(C)C(=O)[C@H](C)N(C)C(=O)[C@H](Cc2ccccc2)N(C)C(=O)[C@H](Cc2ccccc2)NC(=O)[C@H](CC(C)C)N(C)C(=O)CCN(C)C(=O)C[C@@H](C(=O)N(C)[C@@H](Cc2ccccc2)C(=O)N[C@@H](C)C(=O)N2CCCCC2)NC(=O)[C@H](CC(C)C)N(C)C1=O [DP-351] ([NMeβAla][NMeL]F[NMeF][NMeA][NMeL]TL[NMeL]D[NMeF]A-Piperidide; lactam N-10) |  |  | 63 | 51 |
| CC(C)C[C@@H]1NC(=O)[C@H]([C@@H](C)O)NC(=O)[C@H](CC(C)C)N(C)C(=O)CN(C)C(=O)[C@H](Cc2ccccc2)N(C)C(=O)[C@H](C(C)C)NC(=O)C[C@@H](C(=O)N2CCCCC2)NC(=O)[C@H](CC(C)C)N(C)C1=O [DP-690] (V[NMeF][Sar][NMeL]TL[NMeL]D-Piperidide; lactam N-8) |  |  | 33 | 217 |
| CC[C@H](C)[C@@H]1NC(=O)[C@H]([C@@H](C)O)NC(=O)[C@H](CC(C)C)NC(=O)[C@H](Cc2ccccc2)NC(=O)[C@H](CC(C)C)NC(=O)[C@H](C)NC(=O)C[C@@H](C(=O)N2CCCCC2)NC(=O)[C@H](Cc2ccccc2)NC(=O)[C@H](CC(C)C)NC(=O)[C@H](Cc2ccccc2)N(C)C1=O [DP-329] (ALFLTI[NMeF]LFD-Piperidide; lactam N-10) |  |  | 2.4 | 66 |
| CC(C)C[C@H]1C(=O)N(C)[C@@H](C(C)C)C(=O)N[C@@H](Cc2ccccc2)C(=O)N[C@H](C(=O)N(C)[C@@H](Cc2ccccc2)C(=O)N[C@@H](C)C(=O)N2CCCCC2)CC(=O)N[C@H](C)C(=O)N[C@@H](C(C)C)C(=O)N(C)[C@@H](CC(C)C)C(=O)N[C@@H]([C@@H](C)O)C(=O)N(C)[C@@H](Cc2ccccc2)C(=O)NCC(=O)N1C [DP-291] ([dA]V[NMeL]T[NMeF]G[NMeL][NMeV]FD[NMeF]A-Piperidide; lactam N-10) | 14 | 97 |  |  |
